Reference: article PMC10005104 (Molecules, 2023)
Values joined by “and” are separate entries in the source; they are usually repeats but may differ in a detail not shown here. Equal entries are not always repeated. “Also recorded” adds a separate entry of the source. Structures can show the parent of a compound that is named as a salt. Where two headings read alike, the source gives them in different places.

How the values were obtained:
[1] = target: T1, eeAChE (Electrophorus electricus, UniProt O42275); test: kinetic study of eeAChE inhibition (Lineweaver-Burk, Cornish-Bowden plots); format: biochemical; details: substrate acetylthiocholine
T1 construct: purchased Sigma-Aldrich (Steinheim, Germany)
Protocol: […]. The Michaelis–Menten equation was used to calculate the maximum velocity (Vmax) and the Michaelis constant (Km).
(§1) The type of line intersection and the location of this intersection confirms the mixed type of inhibition.
(§2) Studies were performed with compounds 16 and 17 using a method as described previously. Vmax and Km values of the Michaelis–Menten kinetics were calculated by nonlinear regression from substrate–velocity curves. Lineweaver–Burk and Cornish–Bowden plots were calculated using linear regression in GraphPad Prism 9 software (GraphPad Software, San Diego, CA, USA). Each experiment was performed in triplicate.

[2] = target: T2, AChE from electrophorus electricus (eeAChE) (Electrophorus electricus, UniProt O42275); test: modified Ellman colorimetric assay, eeAChE; format: biochemical; details: for IC50: three independent experiments, read-out: eeAChE IC50 Mean ± SEM
T2 construct: purchased Sigma-Aldrich (Steinheim, Germany)
Protocol: All compounds were tested at a concentration of 10 µM in a modified colorimetric method first described by Ellman et al. in the 1960s, using AChE from electrophorus electricus (eeAChE) and BuChE from equine serum (eqBuChE). […]. All results are collected in Table 1. […]. […] No correlation was observed between inhibitory activity and hH3R affinity. The most interesting compounds were among the azepane derivatives. […]. AChE from electrophorus electricus and BuChE from equine serum were purchased from Sigma-Aldrich (Steinheim, Germany). The whole procedure was performed as previously described, using a modified Ellman method in 96-well microplates. Absorbance was measured using an EnSpire multimode microplate reader (PerkinElmer, Waltham, MA, USA) at 412 nm. Initial screening was performed for compounds at a concentration of […]. The percentage of inhibition was calculated by comparison with a blank sample (100% enzyme activity). For compounds showing >70% inhibition of enzyme activity, IC50 values were determined, measuring absorbance at six different inhibitor concentrations. Each concentration was measured in triplicate. IC50 values were calculated using GrapPad Prism 9 software (GraphPad Software, San Diego, CA, USA). Data are expressed as mean ± SEM.

[3] = target: T3, human H3 receptor (hH3R) (Homo sapiens, UniProt Q9Y5N1); test: [3H]-Nα-methylhistamine radioligand binding assay, HEK293 cell membranes expressing hH3R; details: hH3R Ki Mean [CI 95%], HEK293 cells expressing human H3 receptor; at least three independent repetitions
T3 construct: expressed in transfected cells; host or cells: HEK293
Protocol: The affinity for hH3R was assessed in vitro in radioligand binding assays, using membrane preparations of HEK293 cells stably expressing hH3R, while [^3H]-N^α-methylhistamine was used as a radioligand. The exact procedure was described previously by Kottke et al.. Novel compounds were tested as oxalic acid salts. […]. The activity depended on all three variables, i.e., the presence of an amine group, the chain length (five or six carbons), and the type of substituent in the phenyl ring. With regard to the change in the amine moiety, it can be observed that, regardless of the length of the chain and the type of R substituent, the activity of the derivatives was arranged in the following order: 3-methylpiperidine ≥ piperidine ≥ azepane >> 4-metylpiperidine derivatives. Regarding the length of the carbon chain, compounds bearing the pentylene chain are characterized by a higher binding affinity to the receptor than hexylene derivatives (exception: 10). […]
H3R receptor affinity assays were performed in the radioligand competition assay. Human H3R was stably expressed in HEK293 cells. [^3H]-N^α-Methylhistamine (KD = 3.08 nM) was used as the radioligand. The compounds used in the experiments were dissolved in DMSO. The precise experiment was performed as previously described. Complete curves were obtained for at least seven approximate concentrations, in at least three independent experiments, performed at least in duplicate. Ki values were calculated using the Cheng–Prusoff equation. Results are presented as mean values with confidence intervals (CI) (95%).

[4] = tested on: HepG2 and SH-SY5Y cells; test: MTS assay, statements on both cell lines together; format: cell-based, human; details: HepG2 or SH-SY5Y cells; up to 50 µM
[5] = MTS assay, statements on both cell lines together; format: cell-based, human; details: human, HepG2 hepatoma cells and SH-SY5Y neuroblastoma cells; HepG2 48 h, SH-SY5Y 24 h; up to 50 µM; read-out: cell viability at the highest doses tested
[6] = MTS assay in SH-SY5Y cells; format: cell-based; details: human, SH-SY5Y neuroblastoma cells; at 50 µM, percentage of control (vehicle-treated cells); read-out: SH-SY5Y Cell Viability (%)
Protocol: (§3) . After the indicated time, the MTS reagent was added directly to the cultured cells for 1 h, and then the absorbance at 490 nm was read. […] The results are presented in Table 2 and Figures S1 and S2 (Supplementary Materials).
(§4) The hepatoma cell line HepG2 (ATCC® HB-8065TM) and SH-SY5Y CRL-2266 neuroblastoma cell line were used to evaluate the toxicity of tested compounds. Tests were conducted as described previously. The CellTiter 96® Aqueous Non-Radioactive Cell Proliferation Assay was purchased from Promega (Madison, WI, USA). […]. […] Each experiment was performed twice, in triplicate.

[7] = tested on: SH-SY5Y cells; test: MTS assay in SH-SY5Y cells; format: cell-based; details: Homo sapiens, SH-SY5Y; MTS assay, 24 h of exposure
Protocol: as §3, §4

[8] = target: T4, BuChE from equine serum (eqBuChE) (Equus caballus, UniProt P81908); test: biochemical; details: three independent experiments; read-out: eqBuChE IC50 Mean ± SEM
T4 construct: BuChE from equine serum (eqBuChE); purchased Sigma-Aldrich (Steinheim, Germany); host or cells: equine serum
Protocol: AChE from electrophorus electricus and BuChE from equine serum were purchased from Sigma-Aldrich (Steinheim, Germany). The whole procedure was performed as previously described, using a modified Ellman method in 96-well microplates. […] Initial screening was performed for compounds at a concentration of […]. The percentage of inhibition was calculated by comparison with a blank sample (100% enzyme activity). […] Each concentration was measured in triplicate. IC50 values were calculated using GrapPad Prism 9 software (GraphPad Software, San Diego, CA, USA). Data are expressed as mean ± SEM.

[9] = target: T5, hMAO B (Homo sapiens, UniProt P27338); test: fluorometric Amplex red MAO assay; format: biochemical; details: at 1 µM; two independent experiments; read-out: hMAO B % inh
T5 construct: purchased Sigma-Aldrich (Steinheim, Germany)
T5 sequence (P27338 1-520): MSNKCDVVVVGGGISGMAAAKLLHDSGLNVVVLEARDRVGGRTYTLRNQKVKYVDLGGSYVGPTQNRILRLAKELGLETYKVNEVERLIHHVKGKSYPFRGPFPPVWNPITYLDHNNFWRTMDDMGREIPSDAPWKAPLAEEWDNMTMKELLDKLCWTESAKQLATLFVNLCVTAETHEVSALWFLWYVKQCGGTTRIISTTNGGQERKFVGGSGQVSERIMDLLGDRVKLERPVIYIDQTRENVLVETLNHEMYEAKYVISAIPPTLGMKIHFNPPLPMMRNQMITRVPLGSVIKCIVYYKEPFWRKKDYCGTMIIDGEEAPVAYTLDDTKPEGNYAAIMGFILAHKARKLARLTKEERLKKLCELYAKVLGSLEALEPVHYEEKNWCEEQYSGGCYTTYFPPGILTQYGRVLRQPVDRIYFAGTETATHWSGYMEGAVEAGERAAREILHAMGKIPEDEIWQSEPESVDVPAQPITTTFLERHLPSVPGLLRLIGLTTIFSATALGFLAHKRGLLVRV
Protocol: The ability to inhibit MAO B was estimated by a fluorescence assay, as previously described.
The enzyme was purchased from Sigma-Aldrich (Steinheim, Germany). Screening was carried out at a concentration of 1 micromolar. Inhibitor activity was measured in the presence of p-tyramine.
Data are expressed as mean values of two independent experiments.

[10] = tested on: HepG2 cells; test: MTS assay in HepG2 cells; format: cell-based; details: Homo sapiens, HepG2; MTS assay, 48 h of exposure
Protocol: as §3, §4

[11] = MTS assay in HepG2 cells; format: cell-based; details: human, HepG2 hepatoma cells; at 50 µM, percentage of control (vehicle-treated cells); read-out: HepG2 Cell Viability (%)
Protocol: as §3, §4

[12] = target: T2, AChE from electrophorus electricus (eeAChE); details: cited from earlier work
[13] = tested on: hH3R; details: cited from earlier work
[14] = target: T4, BuChE from equine serum (eqBuChE); details: cited from earlier work
[15] = tested on: mpBuChE; design: method as in PMID 30822710; details: cited from earlier work
[16] = tested on: AChE extracted from mouse brains (mbAChE); design: method as in PMID 30822710; details: cited from earlier work
[17] = target: hH3R; details: cited from earlier work; remark: listed apart in the source
[18] = target: T6, eqBuChE (Equus caballus, UniProt P81908); test: kinetic study of eqBuChE inhibition (Lineweaver-Burk, Cornish-Bowden plots); format: biochemical, equine; details: substrate butyrylthiocholine
T6 construct: BuChE from equine serum (eqBuChE); purchased Sigma-Aldrich (Steinheim, Germany); host or cells: equine serum
Protocol: The Michaelis–Menten equation was used to calculate the maximum velocity (Vmax) and the Michaelis constant (Km).
as §1, §2

T2 sequence (O42275 24-633): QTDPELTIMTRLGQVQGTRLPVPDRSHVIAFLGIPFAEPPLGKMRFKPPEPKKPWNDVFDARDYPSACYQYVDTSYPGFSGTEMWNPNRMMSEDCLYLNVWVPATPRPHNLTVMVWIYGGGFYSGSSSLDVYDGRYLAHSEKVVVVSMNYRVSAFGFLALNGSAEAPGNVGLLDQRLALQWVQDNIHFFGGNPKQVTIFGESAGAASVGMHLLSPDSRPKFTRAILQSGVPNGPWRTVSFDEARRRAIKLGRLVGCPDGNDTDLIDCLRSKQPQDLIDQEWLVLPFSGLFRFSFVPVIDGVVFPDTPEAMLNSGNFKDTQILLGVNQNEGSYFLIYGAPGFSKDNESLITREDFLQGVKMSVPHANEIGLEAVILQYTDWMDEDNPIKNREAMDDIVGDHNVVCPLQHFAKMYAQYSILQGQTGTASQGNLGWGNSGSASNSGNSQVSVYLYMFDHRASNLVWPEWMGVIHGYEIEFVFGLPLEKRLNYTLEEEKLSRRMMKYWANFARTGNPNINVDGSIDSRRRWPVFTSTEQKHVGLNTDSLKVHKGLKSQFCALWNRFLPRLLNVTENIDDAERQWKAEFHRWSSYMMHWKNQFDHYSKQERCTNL
T4 sequence (P81908 whole entry): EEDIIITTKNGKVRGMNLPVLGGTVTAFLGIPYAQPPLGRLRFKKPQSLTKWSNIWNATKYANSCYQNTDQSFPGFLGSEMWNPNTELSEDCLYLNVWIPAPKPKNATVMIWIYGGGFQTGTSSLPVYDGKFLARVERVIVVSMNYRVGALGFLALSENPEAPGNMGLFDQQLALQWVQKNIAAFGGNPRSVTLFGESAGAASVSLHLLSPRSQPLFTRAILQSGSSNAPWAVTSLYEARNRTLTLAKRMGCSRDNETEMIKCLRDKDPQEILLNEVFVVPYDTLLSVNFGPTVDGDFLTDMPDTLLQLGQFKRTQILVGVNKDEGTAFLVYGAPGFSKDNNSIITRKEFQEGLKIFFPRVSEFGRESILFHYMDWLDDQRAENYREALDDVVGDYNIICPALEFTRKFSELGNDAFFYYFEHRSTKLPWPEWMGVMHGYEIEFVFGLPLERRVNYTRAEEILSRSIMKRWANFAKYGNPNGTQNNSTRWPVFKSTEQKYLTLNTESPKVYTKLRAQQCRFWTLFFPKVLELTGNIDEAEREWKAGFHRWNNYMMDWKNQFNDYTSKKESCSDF
T3 sequence (Q9Y5N1 whole entry): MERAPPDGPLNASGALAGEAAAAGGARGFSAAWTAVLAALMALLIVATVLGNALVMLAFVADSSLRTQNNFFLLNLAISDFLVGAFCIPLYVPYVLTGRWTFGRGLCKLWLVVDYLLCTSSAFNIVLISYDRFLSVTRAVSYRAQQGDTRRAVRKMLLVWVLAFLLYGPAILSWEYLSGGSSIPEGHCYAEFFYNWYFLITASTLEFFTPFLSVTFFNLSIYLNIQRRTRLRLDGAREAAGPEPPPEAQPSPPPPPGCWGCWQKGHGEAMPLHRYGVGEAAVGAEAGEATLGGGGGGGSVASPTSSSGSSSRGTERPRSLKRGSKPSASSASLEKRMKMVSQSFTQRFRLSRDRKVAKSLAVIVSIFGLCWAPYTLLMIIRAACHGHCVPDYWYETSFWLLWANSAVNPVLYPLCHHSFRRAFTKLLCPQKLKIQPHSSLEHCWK
T1 sequence (O42275 24-633): as the sequence (O42275 24-633) above
T6 sequence (P81908 whole entry): as the sequence (P81908 whole entry) above

Compound | IC50 [2] | Ki [3] | viability at 50 µM [5] | viability at 24 h, 50 µM [6] | IC50 [7] | IC50 [8] | inhibition at 1 µM [9] | IC50 [10] | viability at 48 h, 50 µM [11] | IC50 [12] | IC50 [14] | Ki [17] | other results
CCC(=O)c1ccc(OCCCCCCN2CCCCCC2)cc1.O=C(O)C(=O)O [Compound 17, 1-(4-((6-(Azepan-1-yl)hexyl)oxy)phenyl)propan-1-one hydrogen oxalate] | 1.06 ± 0.03 µM | < 0.05 µM and 0.042 µM | > 50% | 70.3 ± 4.46% | 111 µM | 2.86 ± 0.03 µM | 5% | 60 µM | 58 ± 3.54% | – | – | – | type of eeAChE inhibition [1]: non-competitive (mixed); also recorded: mixed; cell toxicity [4]: lack of cell toxicity
CN1CCN(CCCN(C)C(=O)c2cc3ccc(Cl)cc3[nH]2)CC1 [I] | – | – | – | – | – | – | – | – | – | 9.09 µM | 21.1 µM | – | EC50 [13]: 0.73 µM
CCN(C)CCCCOc1ccc2c(=O)c(-c3ccc(OCCN4CCCCC4)cc3)coc2c1 [II] | – | – | – | – | – | – | – | – | – | – | – | – | IC50 [15]: 2.89 µM; IC50 [13]: 0.27 µM; IC50 [16]: 0.08 µM
C=CCN1CCN(CC2Cc3cc(C(C)(C)C)ccc3O2)CC1 (stereo not shown) [VI] | – | – | – | – | – | – | – | – | – | 19.1 µM | 13.2 µM | 0.016 µM | –
O=C(c1ccccc1)c1ccc(OCCCCCN2CCCCCC2)cc1 [lead 2] | – | – | – | – | – | – | – | – | – | 4.63 µM | 0.68 µM | 0.04 µM | –
CCC(=O)c1ccc(OCCCCCN2CCCCCC2)cc1.O=C(O)C(=O)O [Compound 16, 1-(4-((5-(Azepan-1-yl)pentyl)oxy)phenyl)propan-1-one hydrogen oxalate] | 3.6 ± 0.12 µM | < 0.05 µM and 0.03 µM | > 50% | 90.3 ± 5.32% | 357 µM | 0.55 ± 0.02 µM | 6% | 92 µM | 67.7 ± 1.14% | – | – | – | cell toxicity [4]: lack of cell toxicity; type of eqBuChE inhibition [18]: mixed
CCC(=O)c1ccc(OCCCCCN2CCCC(C)C2)cc1 (stereo not shown) [Compound 8, 1-(4-((5-(3-Methylpiperidin-1-yl)pentyl)oxy)phenyl)propan-1-one hydrogen oxalate] | 2.1 ± 0.06 µM | 0.012 µM | > 50% | 90.7 ± 1.5% | 349 µM | 1.75 ± 0.05 µM | 19% | 142 µM | 70.9 ± 2.92% | – | – | – | –
CCC(=O)c1ccc(OCCCCCN2CCC(C)CC2)cc1 [Compound 12, 1-(4-((5-(4-Methylpiperidin-1-yl)pentyl)oxy)phenyl)propan-1-one hydrogen oxalate] | – | 0.057 µM | > 50% | 90.7 ± 12.9% | 421 µM | 1.29 ± 0.08 µM | 0% | 149 µM | 77.2 ± 4.14% | – | – | – | inhibition at 10 µM ([2]; at 10 µM, read-out: eeAChE % inh): 58%
N#Cc1ccc(-c2ccc(OCCCN3CCCCCC3)cc2)cc1 [V] | – | – | – | – | – | – | – | – | – | 2.63 µM | 1.3 µM | 0.009 µM | –
